The text below walks through data of US20100093861A1, “TREATMENT OF INSULIN RESISTANCE OR DISEASES ASSOCIATED WITH INSULIN RESISTANCE” (Stevia ApS, priority 2006, published 2010).

In assay [1] the test system is isolated NMRI mice islets. As to the kind of experiment: Glucose stimulated insulin secretion (GSIS) from isolated NMRI mice islets. The format is cell-based. To be noted: 10^−8 mol/l-10^−6 mol/l, 16.7 mmol/l glucose, 60 minutes. As for the experimental part:
For in vitro studies with steviol and ISV, we included adult female NMRI mice (Taconic, Ry Denmark), all weighing 22-25 g. We used 12 hours light/dark cycle. The Danish Council for Animal experiments has approved the study.
Islets were isolated by the collagenase digestion technique. In brief, the animals were anesthetized with pentobarbital (50 mg/kg intraperitoneally) and midline laparotomy was performed. The pancreas was retrogradely filled with 3 mL ice-cold Hanks balanced salt solution (([HBSS] Sigma Chemical, St Louis, Mo.) supplemented with 0.3 mg/ml collagenase Boehringer Mannheim GmbH, Germany). The pancreas was subsequently removed and incubated for 19 minutes at 37° C. After rinsing in HBSS, the islets were handpicked under a stereomicroscope and immediately transferred to a tubes containing 1 ml Trizol (Gibco/Invitrogene, Calsbad, Calif., USA). The islets isolated from the NMRI mice were incubated overnight at 37° C. and 95% normal atmosphere/5% CO2 in 10 ml RPMI 1640 containing 11.1 mmol/L glucose supplemented with penicillin G and 100 μg/mL streptomycin (all Gibco/Invitrogene, Calsbad, Calif., USA).
The NMRI female mice islets were rinsed twice with a modified Krebs-Ringer buffer (KRB) supplemented with 3.3 mmol/L glucose and 0.1% human serum albumin (Sigma). The KRB contained 125 mmol/L NaCl, 5.9 mmol/L KCl, 1.2 MgCl, 1.28 CaCl2 and 25 mmol/L HEPES (Ph 7.4: all Sigma). Single islets were incubated in 100 μL KRB containing glucose (3.3 and 16.7 mmol/L) and steviol/ISV according to the protocols (Jeppesen et al., 2000). After incubation (60 min), 50 μL of the medium was frozen for RIA analysis of insulin.

A further assay concerns isolated mouse islets. Particulars: previously demonstrated (Jeppesen, P. B. et al., 2000); cited from earlier work.

Regarding `C=C1C[C@@]23CC[C@H]4[C@@](C)(CCC[C@@]4(C)C(=O)O)[C@@H]2CC[C@]1(O)C3` [steviol, ent-kaur-16-en-13-ol-19-oic acid], the “potency on GSIS, isosteviol compared with steviol, at higher concentration” value in assay [1] is “not found any significant difference”. Besides, the “insulinotropic effect on isolated mouse islets” value with isolated mouse islets is “potent insulinotropic effect”.
